Experimental data: PMC9090415, “Discovery of small molecule inhibitors of Plasmodium falciparum apicoplast DNA polymerase” (Journal of Enzyme Inhibition and Medicinal Chemistry, 2022)

Biological target: P. falciparum apicoplast DNA polymerase (Pf-apPOL) (Plasmodium falciparum, UniProt Q8ILY1)
Assay: Fluorescence-based high-throughput DNA polymerase assay (molecular beacon), primary screen and dose-response;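 for % inhibition ApPOL 90': test concentration in µM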;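 for % inhibition apPOL 180': test concentration in µM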
Type: biochemical
Details: for DNA Pol: 90 min, 10 µM; for IC50: supplemental file 2, sheet IC50 nontoxic compounds, Pf-apPOL
Method in brief: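 Single-point screening used 10 µM compound with 20 nM polymerase, 20 nM hairpin substrate and 6 µM dNTPs for 90 min at 25 °C. Confirmatory titrations (2.5–80 µM) followed fluorescence at three times, and IC50 was derived from a fit including a cooperativity term n.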

[1] = primary screen value by plate and well
[2] = primary screen value of the 186 hits, unit not given

Sequence of P. falciparum apicoplast DNA polymerase (Pf-apPOL) (Q8ILY1 entry or part of it): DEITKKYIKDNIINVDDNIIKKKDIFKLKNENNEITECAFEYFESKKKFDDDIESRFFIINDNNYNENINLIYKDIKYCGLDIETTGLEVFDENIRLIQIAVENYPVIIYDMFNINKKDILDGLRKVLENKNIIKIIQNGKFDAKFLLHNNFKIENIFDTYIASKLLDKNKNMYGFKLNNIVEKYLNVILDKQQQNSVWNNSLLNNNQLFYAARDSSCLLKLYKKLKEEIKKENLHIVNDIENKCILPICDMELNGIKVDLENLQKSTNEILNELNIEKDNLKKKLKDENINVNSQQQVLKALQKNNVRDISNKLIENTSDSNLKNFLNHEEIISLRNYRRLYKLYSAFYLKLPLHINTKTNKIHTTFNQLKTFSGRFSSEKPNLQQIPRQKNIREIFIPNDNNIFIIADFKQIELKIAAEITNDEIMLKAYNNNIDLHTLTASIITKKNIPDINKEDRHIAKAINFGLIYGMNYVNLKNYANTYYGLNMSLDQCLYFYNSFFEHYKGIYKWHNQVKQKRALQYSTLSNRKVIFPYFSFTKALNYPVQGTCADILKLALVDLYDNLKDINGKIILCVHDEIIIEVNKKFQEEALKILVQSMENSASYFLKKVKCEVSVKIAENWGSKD

COc1ccc(NC(=O)Cn2ccc3c(=O)[nH]ccc32)cc1 [Molecule 13, COc1ccc(cc1)NC(=O)Cn1ccc2c1cc[nH]c2=O]
% inhibition Apo pol 10' (DRC-1, concentration 2.5): 9.9864% | % inhibition Apo pol 10' (DRC-1, concentration 5): 32.1099% | % inhibition Apo pol 10' (DRC-1, concentration 10): 65.6259% | % inhibition Apo pol 10' (DRC-1, concentration 20): 81.849% | % inhibition Apo pol 10' (DRC-1, concentration 40): 89.1437% | % inhibition Apo pol 10' (DRC-1, concentration 80): 82.2361% | % inhibition Apol 90' (DRC-1, 90', concentration 2.5): 1.393% | % inhibition Apol 90' (DRC-1, 90', concentration 5): 18.8368% | % inhibition Apol 90' (DRC-1, 90', concentration 10): 50.5955% | % inhibition Apol 90' (DRC-1, 90', concentration 20): 73.6159% | % inhibition Apol 90' (DRC-1, 90', concentration 40): 87.1809% | % inhibition Apol 90' (DRC-1, 90', concentration 80): 85.204% | % inhibition apPOL 180' (DRC-1, 180', concentration 2.5): -3.687% | % inhibition apPOL 180' (DRC-1, 180', concentration 5): 7.549% | % inhibition apPOL 180' (DRC-1, 180', concentration 10): 35.4263% | % inhibition apPOL 180' (DRC-1, 180', concentration 20): 60.6819% | % inhibition apPOL 180' (DRC-1, 180', concentration 40): 82.9961% | % inhibition apPOL 180' (DRC-1, 180', concentration 80): 83.4711% | % inhibition Apo pol 5' (DRC-2, concentration 2.5): 7% | % inhibition Apo pol 5' (DRC-2, concentration 5): 18% | % inhibition Apo pol 5' (DRC-2, concentration 10): 37% | % inhibition Apo pol 5' (DRC-2, concentration 20): 47% | % inhibition Apo pol 5' (DRC-2, concentration 40): 45% | % inhibition Apo pol 5' (DRC-2, concentration 80): 40% | % inhibition Apol 40' (DRC-2, 40', concentration 2.5): 5.45% | % inhibition Apol 40' (DRC-2, 40', concentration 5): 19% | % inhibition Apol 40' (DRC-2, 40', concentration 10): 41% | % inhibition Apol 40' (DRC-2, 40', concentration 20): 65% | % inhibition Apol 40' (DRC-2, 40', concentration 40): 67% | % inhibition Apol 40' (DRC-2, 40', concentration 80): 65% | % inhibition ApPOL 90' (DRC-2, 90', concentration 2.5): 4% | % inhibition ApPOL 90' (DRC-2, 90', concentration 5): 16% | % inhibition ApPOL 90' (DRC-2, 90', concentration 10): 38% | % inhibition ApPOL 90' (DRC-2, 90', concentration 20): 66% | % inhibition ApPOL 90' (DRC-2, 90', concentration 40): 72% | % inhibition ApPOL 90' (DRC-2, 90', concentration 80): 70% | % inhibition apPOL 180' (DRC-2, 180', concentration 2.5): -2% | % inhibition apPOL 180' (DRC-2, 180', concentration 5): 7% | % inhibition apPOL 180' (DRC-2, 180', concentration 10): 27% | % inhibition apPOL 180' (DRC-2, 180', concentration 20): 63% | % inhibition apPOL 180' (DRC-2, 180', concentration 40): 74% | % inhibition apPOL 180' (DRC-2, 180', concentration 80): 76% | % inhibition Apo pol 5' (conc. 2.5, DRC-2): 7% | % inhibition apPOL 180' (conc. 5, 180', DRC-2): 7% | % inhibition Apol 40' (conc. 20, 40', DRC-2): 65% | % inhibition Apol 40' (conc. 80, 40', DRC-2): 65% | DNA Pol [1]: 53 | DNA Pol [2]: 53

COc1ccc(NC(=O)Cn2ccc3c(=O)[nH]ccc32)cc1 [Molecule 13]
IC50: 7.09 µM

Cc1ccc(NC(=O)C2CCN(C(=O)c3cc4ccsc4[nH]3)CC2)c(Br)c1 [Molecule 14]
IC50: 6.6 µM

COc1ccc(C)cc1NC(=O)Cn1ccc2c(=O)[nH]ccc21 [Molecule 15, COc1ccc(cc1NC(=O)Cn1ccc2c1cc[nH]c2=O)C]
% inhibition Apo pol 10' (DRC-1, concentration 2.5): 1.7584% | % inhibition Apo pol 10' (DRC-1, concentration 5): 31.9729% | % inhibition Apo pol 10' (DRC-1, concentration 10): 59.9251% | % inhibition Apo pol 10' (DRC-1, concentration 20): 81.9832% | % inhibition Apo pol 10' (DRC-1, concentration 40): 82.3162% | % inhibition Apo pol 10' (DRC-1, concentration 80): 74.4719% | % inhibition Apol 90' (DRC-1, 90', concentration 2.5): -2.786% | % inhibition Apol 90' (DRC-1, 90', concentration 5): 18.8368% | % inhibition Apol 90' (DRC-1, 90', concentration 10): 46.9508% | % inhibition Apol 90' (DRC-1, 90', concentration 20): 77.5716% | % inhibition Apol 90' (DRC-1, 90', concentration 40): 84.7552% | % inhibition Apol 90' (DRC-1, 90', concentration 80): 84.8173% | % inhibition apPOL 180' (DRC-1, 180', concentration 2.5): -5.413% | % inhibition apPOL 180' (DRC-1, 180', concentration 5): 6.847% | % inhibition apPOL 180' (DRC-1, 180', concentration 10): 30.4146% | % inhibition apPOL 180' (DRC-1, 180', concentration 20): 67.1672% | % inhibition apPOL 180' (DRC-1, 180', concentration 40): 81.3984% | % inhibition apPOL 180' (DRC-1, 180', concentration 80): 86.595% | % inhibition Apo pol 5' (DRC-2, concentration 2.5): 1.82% | % inhibition Apo pol 5' (DRC-2, concentration 5): 24% | % inhibition Apo pol 5' (DRC-2, concentration 10): 47% | % inhibition Apo pol 5' (DRC-2, concentration 20): 44% | % inhibition Apo pol 5' (DRC-2, concentration 40): 34% | % inhibition Apo pol 5' (DRC-2, concentration 80): 8% | % inhibition Apol 40' (DRC-2, 40', concentration 2.5): 0.779% | % inhibition Apol 40' (DRC-2, 40', concentration 5): 28% | % inhibition Apol 40' (DRC-2, 40', concentration 10): 63% | % inhibition Apol 40' (DRC-2, 40', concentration 20): 65% | % inhibition Apol 40' (DRC-2, 40', concentration 40): 60% | % inhibition Apol 40' (DRC-2, 40', concentration 80): 46% | % inhibition ApPOL 90' (DRC-2, 90', concentration 2.5): -0.827% | % inhibition ApPOL 90' (DRC-2, 90', concentration 5): 24% | % inhibition ApPOL 90' (DRC-2, 90', concentration 10): 64% | % inhibition ApPOL 90' (DRC-2, 90', concentration 20): 67% | % inhibition ApPOL 90' (DRC-2, 90', concentration 40): 66% | % inhibition ApPOL 90' (DRC-2, 90', concentration 80): 55% | % inhibition apPOL 180' (DRC-2, 180', concentration 2.5): -8% | % inhibition apPOL 180' (DRC-2, 180', concentration 5): 12% | % inhibition apPOL 180' (DRC-2, 180', concentration 10): 58% | % inhibition apPOL 180' (DRC-2, 180', concentration 20): 66% | % inhibition apPOL 180' (DRC-2, 180', concentration 40): 72% | % inhibition apPOL 180' (DRC-2, 180', concentration 80): 64% | % inhibition Apo pol 5' (conc. 5, DRC-2): 24% | % inhibition ApPOL 90' (conc. 5, 90', DRC-2): 24% | % inhibition ApPOL 90' (conc. 10, 90', DRC-2): 64% | % inhibition apPOL 180' (conc. 20, 180', DRC-2): 66% | % inhibition ApPOL 90' (conc. 40, 90', DRC-2): 66% | % inhibition apPOL 180' (conc. 80, 180', DRC-2): 64% | DNA Pol [1]: 73 | DNA Pol [2]: 73

COc1ccc(C)cc1NC(=O)Cn1ccc2c(=O)[nH]ccc21 [Molecule 15]
IC50: 7.23 µM

COc1ccc(-c2c(C(F)(F)F)nn3c(=O)cc(-c4cccc([N+](=O)[O-])c4)[nH]c23)cc1 [Molecule 16, COc1ccc(cc1)c1c2[nH]c(cc(=O)n2nc1C(F)(F)F)c1cccc(c1)N(=O)=O]
DNA Pol ('DNA Pol' of the 186 hits list (primary screen result), unit not given): 98 | % inhibition Apo pol 10' (DRC-1, concentration 2.5): 21.756% | % inhibition Apo pol 10' (DRC-1, concentration 5): 31.6281% | % inhibition Apo pol 10' (DRC-1, concentration 10): 53.4209% | % inhibition Apo pol 10' (DRC-1, concentration 20): 92.9592% | % inhibition Apo pol 10' (DRC-1, concentration 40): 96.2671% | % inhibition Apo pol 10' (DRC-1, concentration 80): 97.8824% | % inhibition Apol 90' (DRC-1, 90', concentration 2.5): 17.6214% | % inhibition Apol 90' (DRC-1, 90', concentration 5): 24.4098% | % inhibition Apol 90' (DRC-1, 90', concentration 10): 48.4616% | % inhibition Apol 90' (DRC-1, 90', concentration 20): 90.3483% | % inhibition Apol 90' (DRC-1, 90', concentration 40): 97.371% | % inhibition Apol 90' (DRC-1, 90', concentration 80): 97.5048% | % inhibition apPOL 180' (DRC-1, 180', concentration 2.5): 12.6653% | % inhibition apPOL 180' (DRC-1, 180', concentration 5): 14.5865% | % inhibition apPOL 180' (DRC-1, 180', concentration 10): 38.3358% | % inhibition apPOL 180' (DRC-1, 180', concentration 20): 87.8097% | % inhibition apPOL 180' (DRC-1, 180', concentration 40): 96.7933% | % inhibition apPOL 180' (DRC-1, 180', concentration 80): 96.9215% | % inhibition Apol 40' (DRC-2, 40', concentration 2.5 (unit not given)): 13% | % inhibition Apol 40' (DRC-2, 40', concentration 40 (unit not given)): 75% | % inhibition ApPOL 90' (DRC-2, 90', concentration 5 (unit not given)): 14% | % inhibition apPOL 180' (DRC-2, 180', concentration 20 (unit not given)): 65% | % inhibition apPOL 180' (DRC-2, 180', concentration 40 (unit not given)): 75% | % inhibition Apo pol 5' (DRC-2, concentration 2.5): 10% | % inhibition Apo pol 5' (DRC-2, concentration 5): 14% | % inhibition Apo pol 5' (DRC-2, concentration 5 (unit not given)): 14% | % inhibition Apo pol 5' (DRC-2, concentration 10): 28% | % inhibition Apo pol 5' (DRC-2, concentration 20): 58% | % inhibition Apo pol 5' (DRC-2, concentration 40): 62% | % inhibition Apo pol 5' (DRC-2, concentration 80): 65% | % inhibition Apo pol 5' (DRC-2, concentration 80 (unit not given)): 65% | % inhibition Apol 40' (DRC-2, 40', concentration 2.5): 13% | % inhibition Apol 40' (DRC-2, 40', concentration 5): 16% | % inhibition Apol 40' (DRC-2, 40', concentration 10): 33% | % inhibition Apol 40' (DRC-2, 40', concentration 20): 68% | % inhibition Apol 40' (DRC-2, 40', concentration 40): 75% | % inhibition Apol 40' (DRC-2, 40', concentration 80): 79% | % inhibition ApPOL 90' (DRC-2, 90', concentration 2.5): 13% | % inhibition ApPOL 90' (DRC-2, 90', concentration 2.5 (unit not given)): 13% | % inhibition ApPOL 90' (DRC-2, 90', concentration 5): 14% | % inhibition ApPOL 90' (DRC-2, 90', concentration 10): 31% | % inhibition ApPOL 90' (DRC-2, 90', concentration 20): 69% | % inhibition ApPOL 90' (DRC-2, 90', concentration 40): 77% | % inhibition ApPOL 90' (DRC-2, 90', concentration 80): 83% | % inhibition apPOL 180' (DRC-2, 180', concentration 2.5): 9% | % inhibition apPOL 180' (DRC-2, 180', concentration 5): 7.4% | % inhibition apPOL 180' (DRC-2, 180', concentration 10): 23% | % inhibition apPOL 180' (DRC-2, 180', concentration 20): 65% | % inhibition apPOL 180' (DRC-2, 180', concentration 40): 75% | % inhibition apPOL 180' (DRC-2, 180', concentration 80): 85% | DNA Pol (primary screen value of the library well, unit not given): 98

COc1ccc(-c2c(C(F)(F)F)nn3c(=O)cc(-c4cccc([N+](=O)[O-])c4)[nH]c23)cc1 [Molecule 16]
IC50: 9.3 µM

COc1ccc(-c2cc3nc4c(c(=O)n3[nH]2)CCN(C(=O)CCc2ccccc2)C4)cc1 [Molecule 17]
IC50: 7.1 µM
